PMC6888825, “Regulation of vanillate and syringate catabolism by a MarR-type transcriptional regulator DesR in Sphingobium sp. SYK-6” (Scientific Reports, 2019)

How the values were obtained:
DesR (SLG_12870) = molecular target: T1, DesR (SLG_12870) (Sphingobium sp. SYK-6, UniProt G2IQU0); test: EMSA, inhibition of DNA binding by purified DesR; settings: effector (derepression); […] DesR, […] DIG-labelled desB, ligM or desR upstream probes, […] compound, pH […] °C
T1 construct: homodimer (42 kDa by SEC)
T1 sequence (G2IQU0 1-172): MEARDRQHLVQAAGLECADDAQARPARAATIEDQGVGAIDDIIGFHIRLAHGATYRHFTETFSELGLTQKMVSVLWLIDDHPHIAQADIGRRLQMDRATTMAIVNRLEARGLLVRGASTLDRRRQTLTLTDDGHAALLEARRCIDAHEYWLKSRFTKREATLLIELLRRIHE

[1] = molecular target: DesR, MarR-type transcriptional regulator (SLG_12870) of Sphingobium sp. SYK-6, His tag-fused (Sphingobium sp. SYK-6); test: SEC; purified DesR (ca. 400 µg) on Superdex 200 Increase 10/300GL, 10 mM KH2PO4-K2HPO4 buffer (pH 7.4) with 140 mM NaCl, 1.0 ml/min; mass estimated against gel-filtration calibration kits (HMW and LMW)
[2] = test system: T2, DesR (His-DesR) (Sphingobium sp. SYK-6), ORF:abc5f351; test: EMSA; settings: EMSA: 20 mM HEPES pH 7.6, 1 mM EDTA, 10 mM (NH4)2SO4, 1 mM DTT, 0.2% Tween 20, 30 mM KCl, 1 ug poly[d(I-C)], 500 pM probe, 20 C, 20 min
T2 sequence: T1 sequence (G2IQU0 1-172)

Compound	EMSA, inhibition of DNA binding by purified DesR (DesR (SLG_12870))	also measured
COc1cc(C(=O)O)cc(OC)c1O [SA, syringate]	decrease in the shift bands of the three probes was also observed in a concentration-dependent manner	–
COc1cc(C(=O)O)ccc1O [VA, vanillate]	In the presence of VA, shift bands of these three probes decreased in a concentration-dependent manner	–
DesR, MarR-type transcriptional regulator (SLG_12870) of Sphingobium sp. SYK-6, His tag-fused (natural protein)	–	stoichiometry N [1]: 2
GCCGTTCCCCTCTCAGGCGCTCGAGATCGACAAAGGTCCGCGCCTTGCGCCGGATCAAGGACAGAGCTTGGCCGTGGACGGCCCGGAGTGACCGGATTTTCCGGCCGGTTTCACGCACTGCCCATTCGAAAAAATTTCGTTTGTGTCACATACAGAAGTTCGGCAGTCTGCCGGCATTGCTCAGCACCGGGCGGACCCGGAAGCCGAACATGCAGGAGAGGTCATATGGCAAAGATCATCGGCGGTTT (double strand) [desBp1]	–	binding [2]: binds
